Experiment [1] has as its target T1, human Nav1.7 channels stably expressed in HEK 293 cells (Homo sapiens, UniProt Q15858).
T1 construct: expressed in transfected cells; host or cells: HEK 293
The experiment is described as follows: IonWorks Quattro automated patch-clamp, inactivated state block of Nav1.7. In kind it is cell-based. To be noted: double-pulse protocol, read-out: potency for the Nav 1.7 sodium ion channel (as measured by IonWorks). As to the method:
(§1) Compounds were tested on human Nav1.7 and Nav1.5 channels stably expressed in HEK 293 cells. […] Cells were sealed on a planar substrate using the Population Patch Plate (PPC) technology. Electrical access was obtained using both nystatin and amphotericin. A double-pulse protocol was used for the determination of IC50 values for inactivated state block. Nav1.7 and Nav1.5 expressing cells were voltage clamped at −100 mV and −110 mV, respectively. A depolarizing prepulse to −10 mV (Nav1.7) or −30 mV (Nav1.5) for 1000 ms followed by a 10 ms repolarization to −100 mV (Nav1.7) or −110 mV (Nav1.5) was given to generate fractional channel inactivation of ˜50%, followed by a 10 ms test pulse to −10 mV (Nav1.7) or −30 mV (Nav1.5) to measure peak current in control conditions and after compound addition. The following recording solutions were used (mM). External: 150 NaCl, 2 CaCl2, 5 KCl, 1 Mg Cl2, 10 HEPES, 12 Dextrose; internal: 120 CsF, 30 CsCl, 10 EGTA, 5 HEPES, 5 NaF, 2 MgCl2.
(§2) For all electrophysiology experiments, offline analysis was used to determine percent inhibition as a function of drug concentration. IC50 values were determined by fitting to the Hill equation.
A general note: Patch clamp records ionic current or voltage across a cell membrane.

For experiment [2], the target named is T2, human Nav1.5 channels stably expressed in HEK 293 cells (Homo sapiens, UniProt Q14524).
T2 construct: expressed in transfected cells; host or cells: HEK 293
T2 sequence (Q14524 whole entry): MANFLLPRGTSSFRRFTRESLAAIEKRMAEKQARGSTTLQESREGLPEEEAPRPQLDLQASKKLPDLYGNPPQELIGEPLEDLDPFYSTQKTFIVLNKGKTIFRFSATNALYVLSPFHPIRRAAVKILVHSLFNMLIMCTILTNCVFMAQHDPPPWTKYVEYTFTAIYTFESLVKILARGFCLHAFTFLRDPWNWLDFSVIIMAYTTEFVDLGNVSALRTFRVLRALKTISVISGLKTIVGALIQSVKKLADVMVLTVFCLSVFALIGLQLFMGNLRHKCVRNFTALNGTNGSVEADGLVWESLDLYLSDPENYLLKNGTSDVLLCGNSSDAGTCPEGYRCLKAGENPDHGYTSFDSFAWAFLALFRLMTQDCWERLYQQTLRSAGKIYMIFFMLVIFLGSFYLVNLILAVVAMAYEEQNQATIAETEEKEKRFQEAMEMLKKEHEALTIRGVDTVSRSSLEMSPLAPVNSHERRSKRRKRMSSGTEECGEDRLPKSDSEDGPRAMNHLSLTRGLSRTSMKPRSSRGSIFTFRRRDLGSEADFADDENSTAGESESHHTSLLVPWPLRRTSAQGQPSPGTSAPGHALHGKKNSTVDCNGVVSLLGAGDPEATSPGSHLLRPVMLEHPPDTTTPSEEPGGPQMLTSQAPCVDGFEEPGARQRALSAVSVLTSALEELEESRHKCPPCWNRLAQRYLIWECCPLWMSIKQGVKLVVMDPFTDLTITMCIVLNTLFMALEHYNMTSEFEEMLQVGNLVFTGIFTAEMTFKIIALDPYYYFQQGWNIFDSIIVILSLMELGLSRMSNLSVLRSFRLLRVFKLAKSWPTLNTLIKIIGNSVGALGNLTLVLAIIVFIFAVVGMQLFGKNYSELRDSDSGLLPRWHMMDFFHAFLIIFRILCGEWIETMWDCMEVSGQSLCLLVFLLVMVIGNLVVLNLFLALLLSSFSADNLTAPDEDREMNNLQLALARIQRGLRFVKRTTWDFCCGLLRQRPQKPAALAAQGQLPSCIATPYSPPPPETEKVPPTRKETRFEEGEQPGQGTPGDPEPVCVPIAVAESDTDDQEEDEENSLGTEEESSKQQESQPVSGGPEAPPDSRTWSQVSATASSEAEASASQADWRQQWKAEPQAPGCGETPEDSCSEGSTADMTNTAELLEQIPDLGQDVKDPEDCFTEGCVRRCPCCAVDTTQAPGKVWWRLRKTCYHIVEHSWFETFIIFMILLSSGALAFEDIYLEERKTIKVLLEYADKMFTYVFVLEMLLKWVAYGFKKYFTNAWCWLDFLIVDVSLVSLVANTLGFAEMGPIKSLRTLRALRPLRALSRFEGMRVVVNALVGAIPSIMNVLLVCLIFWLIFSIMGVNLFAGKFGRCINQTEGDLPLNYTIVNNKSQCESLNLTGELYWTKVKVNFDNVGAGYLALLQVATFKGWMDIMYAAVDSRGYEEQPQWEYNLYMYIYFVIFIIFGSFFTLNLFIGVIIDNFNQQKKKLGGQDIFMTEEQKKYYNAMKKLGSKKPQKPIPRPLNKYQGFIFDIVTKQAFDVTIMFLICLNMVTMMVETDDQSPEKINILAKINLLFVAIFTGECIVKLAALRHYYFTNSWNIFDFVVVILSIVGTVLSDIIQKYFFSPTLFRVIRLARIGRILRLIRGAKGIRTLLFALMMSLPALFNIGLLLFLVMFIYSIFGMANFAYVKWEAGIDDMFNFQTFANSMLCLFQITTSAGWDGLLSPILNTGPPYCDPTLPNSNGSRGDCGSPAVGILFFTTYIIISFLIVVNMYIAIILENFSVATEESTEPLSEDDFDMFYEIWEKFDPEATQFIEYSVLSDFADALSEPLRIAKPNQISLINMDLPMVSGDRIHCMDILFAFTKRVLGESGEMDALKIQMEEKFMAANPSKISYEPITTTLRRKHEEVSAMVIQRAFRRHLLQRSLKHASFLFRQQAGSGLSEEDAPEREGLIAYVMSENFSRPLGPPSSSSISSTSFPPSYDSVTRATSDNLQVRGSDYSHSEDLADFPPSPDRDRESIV
The experiment in a line: IonWorks Quattro automated patch-clamp, inactivated state block of Nav1.5 (selectivity). It counts as cell-based. To be noted: IonWorks measurement, both channels in HEK 293 cells. As to the method: as §1, §2

Molecules are shown by their SMILES.

T1 sequence (Q15858 whole entry): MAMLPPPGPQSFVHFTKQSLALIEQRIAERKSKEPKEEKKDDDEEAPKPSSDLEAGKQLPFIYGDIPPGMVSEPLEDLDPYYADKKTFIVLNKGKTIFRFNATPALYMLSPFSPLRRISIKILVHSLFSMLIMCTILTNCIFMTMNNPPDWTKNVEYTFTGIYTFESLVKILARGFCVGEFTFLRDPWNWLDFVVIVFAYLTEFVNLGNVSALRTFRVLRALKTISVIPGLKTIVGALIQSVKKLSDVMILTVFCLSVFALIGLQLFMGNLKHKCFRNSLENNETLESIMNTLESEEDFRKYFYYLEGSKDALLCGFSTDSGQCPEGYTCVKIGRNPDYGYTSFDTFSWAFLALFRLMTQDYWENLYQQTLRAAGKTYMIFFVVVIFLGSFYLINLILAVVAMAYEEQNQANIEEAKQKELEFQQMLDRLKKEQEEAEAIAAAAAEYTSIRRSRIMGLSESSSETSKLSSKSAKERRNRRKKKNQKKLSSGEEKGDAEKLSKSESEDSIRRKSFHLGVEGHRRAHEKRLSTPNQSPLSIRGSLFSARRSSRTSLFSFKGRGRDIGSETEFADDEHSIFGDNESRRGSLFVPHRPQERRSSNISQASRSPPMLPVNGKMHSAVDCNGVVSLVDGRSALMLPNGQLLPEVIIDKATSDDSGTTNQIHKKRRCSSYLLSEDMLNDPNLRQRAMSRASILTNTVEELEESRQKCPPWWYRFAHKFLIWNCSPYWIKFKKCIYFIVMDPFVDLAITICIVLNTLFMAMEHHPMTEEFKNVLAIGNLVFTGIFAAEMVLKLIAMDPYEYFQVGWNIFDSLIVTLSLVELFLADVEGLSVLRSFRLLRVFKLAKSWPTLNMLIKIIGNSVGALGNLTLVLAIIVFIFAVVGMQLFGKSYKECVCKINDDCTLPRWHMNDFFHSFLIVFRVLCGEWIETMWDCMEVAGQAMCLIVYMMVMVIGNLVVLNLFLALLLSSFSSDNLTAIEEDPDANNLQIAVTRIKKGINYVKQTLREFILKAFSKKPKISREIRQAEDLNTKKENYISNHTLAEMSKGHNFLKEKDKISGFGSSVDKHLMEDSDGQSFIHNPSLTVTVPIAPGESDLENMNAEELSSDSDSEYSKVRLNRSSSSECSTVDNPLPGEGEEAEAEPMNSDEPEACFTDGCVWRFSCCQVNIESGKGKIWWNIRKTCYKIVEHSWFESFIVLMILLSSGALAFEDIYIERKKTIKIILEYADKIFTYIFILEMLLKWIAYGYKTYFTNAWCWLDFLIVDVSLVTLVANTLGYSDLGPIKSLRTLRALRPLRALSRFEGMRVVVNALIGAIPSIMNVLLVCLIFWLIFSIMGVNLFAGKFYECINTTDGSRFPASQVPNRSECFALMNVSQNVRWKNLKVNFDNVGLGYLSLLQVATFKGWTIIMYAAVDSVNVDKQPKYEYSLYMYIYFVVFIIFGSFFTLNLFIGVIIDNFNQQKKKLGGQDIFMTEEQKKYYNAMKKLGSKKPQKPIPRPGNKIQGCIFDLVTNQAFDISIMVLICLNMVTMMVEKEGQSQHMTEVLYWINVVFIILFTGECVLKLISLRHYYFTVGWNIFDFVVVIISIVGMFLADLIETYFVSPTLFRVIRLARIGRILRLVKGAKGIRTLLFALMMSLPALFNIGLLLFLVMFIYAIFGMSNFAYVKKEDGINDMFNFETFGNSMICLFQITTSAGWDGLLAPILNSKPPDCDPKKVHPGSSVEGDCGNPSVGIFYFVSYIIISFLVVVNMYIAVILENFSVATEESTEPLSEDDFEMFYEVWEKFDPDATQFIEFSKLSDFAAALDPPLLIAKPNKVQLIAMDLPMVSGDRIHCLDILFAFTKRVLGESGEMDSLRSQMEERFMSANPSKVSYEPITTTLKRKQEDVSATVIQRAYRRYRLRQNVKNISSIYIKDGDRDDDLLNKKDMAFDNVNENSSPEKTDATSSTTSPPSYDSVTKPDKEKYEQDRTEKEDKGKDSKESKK

On to `CN[C@H](CNc1cc(F)c(S(=O)(=O)Nc2nccs2)cc1Cl)CC1(C(F)(F)F)CC1` [Ex2-16, (S)-5-chloro-2-fluoro-4-((2-(methylamino)-3-(1-(trifluoromethyl)cyclopropyl)-propyl)amino)-N-(thiazol-2-yl)-benzenesulfonamide], for which the IC50 in experiment [1] worked out at 120 nM. Also, in experiment [2], the “ratio of Nav1.7 potency:Nav 1.5 potency” value is recorded as over 275.
On to `CN[C@H](CNc1cc(F)c(S(=O)(=O)Nc2ncc(F)s2)cc1Cl)C[Si](C)(C)C` [Ex2-17, (R)-5-chloro-2-fluoro-N-(5-fluorothiazol-2-yl)-4-((2-(methylamino)-3-(trimethylsilyl)propyl)-amino)benzenesulfonamide], for which the IC50 in experiment [1] is 14 nM. The “ratio of Nav1.7 potency:Nav 1.5 potency” value in experiment [2] is over 1929.
As to `CN[C@H](CNc1cc(F)c(S(=O)(=O)Nc2ncc(F)s2)cc1Cl)CC1CC1` [Ex2-18, (S)-5-chloro-4-((3-cyclopropyl-2-(methylamino)propyl)amino)-2-fluoro-N-(5-fluorothiazol-2-yl)-benzenesulfonamide], in experiment [1], the IC50 was determined as 850 nM. In addition, in experiment [2], the “ratio of Nav1.7 potency:Nav 1.5 potency” value is on record as over 39.
`CN[C@@H](CCC1CC1)CNc1cc(F)c(S(=O)(=O)Nc2ncc(F)s2)cc1Cl` [Ex2-19, (S)-5-chloro-4-((4-cyclopropyl-2-(methylamino)butyl)amino)-2-fluoro-N-(5-fluorothiazol-2-yl)-benzenesulfonamide]: the IC50 in experiment [1] came out at 800 nM. Moreover, the “ratio of Nav1.7 potency:Nav 1.5 potency” value in experiment [2] is over 41.
With `CN[C@H](CNc1cc(F)c(S(=O)(=O)Nc2ncc(F)s2)cc1Cl)CC1CC1(C)C` (stereo partly drawn) [Ex2-20, 5-chloro-4-(((2S)-3-(2,2-dimethylcyclopropyl)-2-(methylamino)propyl)amino)-2-fluoro-N-(5-fluorothiazol-2-yl)-benzenesulfonamide], the IC50 in experiment [1] came to 68 nM. Also, in experiment [2], the “ratio of Nav1.7 potency:Nav 1.5 potency” value was over 485.
`CN[C@H](CNc1cc(F)c(S(=O)(=O)Nc2ncc(F)s2)cc1Cl)CC1CC1(F)F` (stereo partly drawn) [Ex2-22, 5-chloro-4-(((2S)-3-(2,2-difluorocyclopropyl)-2-(methylamino)propyl)amino)-2-fluoro-N-(5-fluorothiazol-2-yl)-benzenesulfonamide]: the IC50 in experiment [1] stood at 1000 nM. In addition, in experiment [2], the “ratio of Nav1.7 potency:Nav 1.5 potency” value is listed as over 23.
In the case of `CN[C@@H](CCC1(C)CC1)CNc1cc(F)c(S(=O)(=O)Nc2ncc(F)s2)cc1Cl` [Ex2-23, (S)-5-chloro-2-fluoro-N-(5-fluorothiazol-2-yl)-4-((2-(methylamino)-4-(1-methylcyclopropyl)butyl)amino)benzenesulfonamide], the IC50 in experiment [1] was determined as 12 nM. Also, the “ratio of Nav1.7 potency:Nav 1.5 potency” value in experiment [2] was over 2750.
Turning to `CN[C@@H](CCC1CCC1)CNc1cc(F)c(S(=O)(=O)Nc2ncc(F)s2)cc1Cl` [Ex3-13, (S)-5-chloro-4-((4-cyclobutyl-2-(methylamino)butyl)amino)-2-fluoro-N-(5-fluorothiazol-2-yl)-benzenesulfonamide], in experiment [1], the IC50 stood at 300 nM. Also, the “ratio of Nav1.7 potency:Nav 1.5 potency” value in experiment [2] was over 110.
As for `[2H]C([2H])([2H])N[C@H](CNc1cc(F)c(S(=O)(=O)Nc2ncc(F)s2)cc1Cl)CC(C)(C)C` [Ex3-14, (S)-5-chloro-4-((4,4-dimethyl-2-((methyl-d3)amino)pentyl)amino)-2-fluoro-N-(5-fluorothiazol-2-yl)-benzenesulfonamide], the IC50 in experiment [1] came to 64 nM. Further, in experiment [2], the “ratio of Nav1.7 potency:Nav 1.5 potency” value was over 429.
Consider `CN[C@H](CNc1cc(F)c(S(=O)(=O)Nc2ncc(F)s2)cc1C#N)CC(C)(C)C` [Ex4-3, (S)-5-cyano-4-((4,4-dimethyl-2-(methylamino)pentyl)amino)-2-fluoro-N-(5-fluorothiazol-2-yl)benzenesulfonamide], for which, in experiment [1], the IC50 was 640 nM. Besides, the “ratio of Nav1.7 potency:Nav 1.5 potency” value in experiment [2] is over 52.
Regarding `CN[C@H](CNc1cc(F)c(S(=O)(=O)Nc2ncc(F)s2)cc1Cl)CC1(C)CC1` [Ex6-10, (S)-5-chloro-2-fluoro-N-(5-fluorothiazol-2-yl)-4-((2-(methylamino)-3-(1-methylcyclopropyl)propyl)amino)benzenesulfonamide], the IC50 in experiment [1] was 340 nM. The “ratio of Nav1.7 potency:Nav 1.5 potency” value in experiment [2] is over 68.
As to `CN(C)[C@H](CNc1cc(F)c(S(=O)(=O)Nc2ncc(F)s2)cc1Cl)C[Si](C)(C)C` [Ex7-2, (R)-5-chloro-4-((2-(dimethylamino)-3-(trimethylsilyl)propyl)-amino)-2-fluoro-N-(5-fluorothiazol-2-yl)benzenesulfonamide], the IC50 in experiment [1] amounted to 18 nM. The “ratio of Nav1.7 potency:Nav 1.5 potency” value in experiment [2] is over 889.
Turning to `CCN[C@H](CNc1cc(F)c(S(=O)(=O)Nc2ncc(F)s2)cc1Cl)C[Si](C)(C)C` [Ex7-4, (R)-5-chloro-4-((2-(ethylamino)-3-(trimethylsilyl)propyl)amino)-2-fluoro-N-(5-fluorothiazol-2-yl)benzenesulfonamide], the IC50 in experiment [1] was 3 nM. Further, the “ratio of Nav1.7 potency:Nav 1.5 potency” value in experiment [2] was over 11000.
For the compound `CCCC[C@@H](CNc1cc(F)c(S(=O)(=O)Nc2ncc(F)s2)cc1Cl)NCCC` [Ex7-5, (S)-5-chloro-2-fluoro-N-(5-fluorothiazol-2-yl)-4-((2-(propylainino)hexyl)amino) benzenesulfonamide], in experiment [1], the IC50 worked out at 41 nM. In addition, the “ratio of Nav1.7 potency:Nav 1.5 potency” value in experiment [2] is listed as over 805.
Regarding `CCCC[C@@H](CNc1cc(F)c(S(=O)(=O)Nc2ncc(F)s2)cc1Cl)NC(C)C` [Ex7-6, (S)-5-chloro-2-fluoro-N-(5-fluorothiazol-2-yl)-4-((2-(isopropylamino)hexyl)amino) benzenesulfonamide], in experiment [1], the IC50 was found to be 30 nM. The “ratio of Nav1.7 potency:Nav 1.5 potency” value in experiment [2] was over 533.

The values above are taken from patent publication US10442778B2, “N1-phenylpropane-1,2-diamine compounds with selective activity in voltage-gated sodium channels” (Merck Sharp & Dohme Corp., priority 2016, dated 2019).
